From patent US20070248646A1, “Use of azurocidin inhibitors in prevention and treatment of ocular vascular leakage” (priority 2006, published 2007)

Key:
[1] = system: VEGF-induced retinal leukostasis; assay: Concanavalin A ex vivo retinal leukostasis quantification, VEGF-induced; format: in vivo, Brown Norway rats
Method: This study employed Brown Norway rats, AZ (1 μg, 10 μg, 20 μg), PBS, aprotinin, VEGF164, and polyclonal anti-AZ antibody (1 μg). Briefly, Brown Norway rats received intravitreal injections of AZ (1 μg, 10 μg and 20 μg) in one eye and PBS in the contralateral eye. BRB breakdown was quantified using the Evans Blue (EB) technique at 1 hour, 3 hours, and 24 hours after intravitreal injection of AZ or PBS. To assess whether AZ induced retinal leukostasis, firm leukocyte adhesion was quantified at 3 hours and 24 hours post AZ injection (10 μg) using the ex vivo conconavalin leukostasis assay. To block AZ, rats were treated with a single intravenous injection of aprotinin (30,000KIU), prior to the intravitreal injections. To investigate whether AZ was involved in VEGF-induced BRB breakdown, rats received intravitreal injections of 50 ng recombinant mouse VEGF164 in one eye and PBS in the other eye and were treated intravenously with aprotinin (50,000KIU every eight hours) or polyclonal anti-AZ antibody (1 μg). BRB breakdown and retinal leukostasis were quantified 24 hours after VEGF injection.
Deep anesthesia was induced with xylazine and ketamine as above. The chest cavity was carefully opened and the left ventricle was entered with a 14-gauge perfusion cannula fixed to a vessel clamp; care was taken to avoid ventricular obstruction. The right atrium was opened with a 12-gauge needle to achieve outflow. With the heart providing the motive force, 250 ml/kg PBS (roughly 30 ml of PBS quickly) was perfused to clear erythrocytes and non-sticking leukocytes, followed by perfusion with FITC-coupled Concanavalin A lectin (20 μg/ml in PBS, pH 7.4, total concentration 5 mg/kg) (Vector Labs, Burlingame, Calif.). The latter stained adherent leukocytes and the vascular endothelium. Lectin staining was followed by PBS perfusion (30 ml quickly).
The retinas were flat-mounted in a water-based fluorescence-anti-fading medium (Southern Biotechnology, Birmingham, Ala.) and imaged via fluorescence microscopy (Leica upright microscope, Hamamatsu digital high sensitivity camera, openlab imaging software). The total number of adherent leukocytes per retina was counted in a masked fashion.

[2] = system: retinal vascular permeability; assay: Qualitative evaluation of retinal vascular permeability with 20-kDa FITC conjugated dextran; format: in vivo, Brown Norway rats; settings: flat-mount retinas, VEGF-injected eyes with or without aprotinin
Method: Retinal vascular permeability was documented in a histological manner by intravenous injection of 20-kDa FITC conjugated dextran (50 mg/Kg, Sigma Aldrich). Rats were sacrificed 30 minutes later with intracardiac perfusion of 4% paraformaldehyde to fix the dextran conjugate in the tissues. The retinas were carefully dissected and flat mounted in anti-fading medium (Vector Laboratories). Flat-mount retinas were examined by fluorescent microscopy. Digital color enhancement (green) was equally applied to all images for improved visualization of fluorescence.

[3] = system: retinal leukostasis in EIU; assay: Retinal leukostasis in Endotoxin-Induced-Uveitis (ConA staining); format: in vivo, Lewis rats; settings: 24 hours post EIU induction; aprotinin 50,000KIU at 0, 8, 16 hours; EIU 106.6±6.5, normal 17±1.2; n=6
Method: (§1) EIU was induced in Lewis rats via footpad injection of 100 μl (1 mg/ml) lipopolysaccharide (LPS). Control animals received an equal volume of saline. The experiments were conducted 24 hours after LPS injection. At this time point, several experimental parameters were assessed.
(§2) To block AZ, animals received 5 ml of aprotinin (Trasylol®; 50,000KIU). The first injection was given at the same time as the footpad injection, followed by a second injection 8 hours later and a third injection 16 hours later. The control animals received and equal amounts of vehicle control. LPS was purchased in lyophilized form from Sigma (#L6511).
Under deep anesthesia, a rat's chest cavity was opened, and its left ventricle was cannulated to allow perfusion (Ishida (2003) supra). The rat's right atrium was opened to achieve outflow. […] The eyes were enucleated, and the retinas were dissected and flatmounted in a water-based fluorescence anti-fading medium (Fluoromount; Southern Biotechnology, Birmingham, Ala.) and imaged by fluorescence microscopy (Leica, FITC filter). […] Leukocytes in arteries, veins, and capillaries of each retinal tissue were counted, and the total number of adherent leukocytes per retina was calculated. […]

[4] = system: intravitreal leukocyte accumulation in EIU; assay: Intravitreal leukocyte accumulation in Endotoxin-Induced-Uveitis; format: in vivo, Lewis rats; settings: 24 hours post LPS-injection; aprotinin 50,000KIU at 0, 8, 16 hours; EIU 343.6±11.7
Method: as §1, §2
To assess leukocyte extravasations into the vitreal cavity during EIU, histological slides of the whole eyes of treated rats were generated and the number of leukocytes in the vitreous cavity of these sections was counted. To do so, whole eyes were placed in 4% paraformaldehyde for fixation. Gradual infiltration of graded alcohols was followed by xylene and finally by liquid paraffin. Paraffin submerged eyes were then cooled to harden. Six-micron sections were cut on a Leica microtome and placed on slides. Sections were stained with hematoxylin and eosin and coverslipped.

## aprotinin
[1]; 24 hours after 50 ng VEGF, aprotinin 50,000 KIU i.v. 1 hour before, 8 and 16 hours after
  leukocyte adhesion as a percentage of leukocyte adhesion in the contralateral PBS-injected eye: 252%
[1]; P>0.05
  leukocyte adhesion, VEGF-injected vs VEGF- and aprotinin-treated eyes: did not differ significantly
[2]
  retinal distribution of intravenously injected 20 kDa FITC-conjugated dextran: fluorescein staining more localized to the retinal vasculature
[3]
  retinal leukostasis (firmly adhering leukocytes per retina): 32.4±2.9 cells
[4]
  number of leukocytes found intravitreally: 119.2±8.4
